Measurements as given in paper PMC9090415, “Discovery of small molecule inhibitors of Plasmodium falciparum apicoplast DNA polymerase” (Journal of Enzyme Inhibition and Medicinal Chemistry, 2022).

Target: P. falciparum apicoplast DNA polymerase (Pf-apPOL) (Plasmodium falciparum, UniProt Q8ILY1)
Experiment: Fluorescence-based high-throughput DNA polymerase assay (molecular beacon), primary screen and dose-response;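 as to % inhibition ApPOL 90': test concentration in µM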;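 as to % inhibition apPOL 180': test concentration in µM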
Assay type: biochemical
Settings: for DNA Pol: 90 min, 10 µM
Outline: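 Single-point screening used 10 µM compound with 20 nM polymerase, 20 nM hairpin substrate and 6 µM dNTPs for 90 min at 25 °C. Confirmatory titrations (2.5–80 µM) followed fluorescence at three times, and IC50 was derived from a fit including a cooperativity term n.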

[1] = 'DNA Pol' of the 186 hits list (primary screen value)

Sequence of P. falciparum apicoplast DNA polymerase (Pf-apPOL) (Q8ILY1 entry or part of it): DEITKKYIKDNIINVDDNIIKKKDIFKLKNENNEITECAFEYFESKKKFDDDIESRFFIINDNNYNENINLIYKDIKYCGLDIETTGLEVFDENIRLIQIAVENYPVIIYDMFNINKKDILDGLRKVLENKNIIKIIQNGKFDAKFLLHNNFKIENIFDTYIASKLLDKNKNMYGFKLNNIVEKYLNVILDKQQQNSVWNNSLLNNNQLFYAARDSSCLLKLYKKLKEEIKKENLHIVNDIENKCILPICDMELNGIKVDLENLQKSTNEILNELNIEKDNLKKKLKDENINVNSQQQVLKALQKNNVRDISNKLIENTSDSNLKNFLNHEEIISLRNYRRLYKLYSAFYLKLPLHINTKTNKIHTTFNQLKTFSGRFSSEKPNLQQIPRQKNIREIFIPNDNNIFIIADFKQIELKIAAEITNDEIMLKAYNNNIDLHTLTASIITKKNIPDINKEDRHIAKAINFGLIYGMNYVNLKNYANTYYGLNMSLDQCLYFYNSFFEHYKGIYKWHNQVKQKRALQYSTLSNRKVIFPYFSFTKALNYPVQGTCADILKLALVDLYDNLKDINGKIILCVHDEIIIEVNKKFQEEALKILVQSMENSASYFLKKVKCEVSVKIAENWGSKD

CCC(C)NC(=O)c1cc(NC(C)=O)cc2nc(C)ccc12 (stereo not shown) [KU0206314]
DNA Pol [1]: 24
DNA Pol (DNA Pol (primary screen value)): 24
% inhibition Apo pol 10' (DRC-1, concentration 2.5): 2.024%
% inhibition Apo pol 10' (DRC-1, concentration 5): 11.6857%
% inhibition Apo pol 10' (DRC-1, concentration 10): 27.7087%
% inhibition Apo pol 10' (DRC-1, concentration 20): 37.1675%
% inhibition Apo pol 10' (DRC-1, concentration 40): 74.587%
% inhibition Apo pol 10' (DRC-1, concentration 80): 89.0945%
% inhibition Apol 90' (DRC-1, concentration 2.5): -1.658%
% inhibition Apol 90' (DRC-1, concentration 5): 3.672%
% inhibition Apol 90' (DRC-1, concentration 10): 15.6061%
% inhibition Apol 90' (DRC-1, concentration 20): 20.1807%
% inhibition Apol 90' (DRC-1, concentration 40): 54.0066%
% inhibition Apol 90' (DRC-1, concentration 80): 77.404%
% inhibition apPOL 180' (DRC-1, concentration 2.5): -4.723%
% inhibition apPOL 180' (DRC-1, concentration 5): -1.48%
% inhibition apPOL 180' (DRC-1, concentration 10): 7.7142%
% inhibition apPOL 180' (DRC-1, concentration 20): 9.245%
% inhibition apPOL 180' (DRC-1, concentration 40): 37.6309%
% inhibition apPOL 180' (DRC-1, concentration 80): 66.384%
% inhibition Apo pol 5' (DRC-2, concentration 2.5): 10%
% inhibition Apo pol 5' (DRC-2, concentration 5): 11%
% inhibition Apo pol 5' (DRC-2, concentration 10): 29%
% inhibition Apo pol 5' (DRC-2, concentration 20): 42%
% inhibition Apo pol 5' (DRC-2, concentration 40): 49%
% inhibition Apo pol 5' (DRC-2, concentration 80): 53%
% inhibition Apol 40' (DRC-2, concentration 2.5): 7%
% inhibition Apol 40' (DRC-2, concentration 5): 7%
% inhibition Apol 40' (DRC-2, concentration 10): 25%
% inhibition Apol 40' (DRC-2, concentration 20): 40%
% inhibition Apol 40' (DRC-2, concentration 40): 58%
% inhibition Apol 40' (DRC-2, concentration 80): 70%
% inhibition ApPOL 90' (DRC-2, concentration 2.5): 5.39%
% inhibition ApPOL 90' (DRC-2, concentration 5): 6%
% inhibition ApPOL 90' (DRC-2, concentration 10): 21%
% inhibition ApPOL 90' (DRC-2, concentration 20): 35%
% inhibition ApPOL 90' (DRC-2, concentration 40): 57%
% inhibition ApPOL 90' (DRC-2, concentration 80): 73%
% inhibition apPOL 180' (DRC-2, concentration 2.5): 1.48%
% inhibition apPOL 180' (DRC-2, concentration 5): 0.928%
% inhibition apPOL 180' (DRC-2, concentration 10): 12%
% inhibition apPOL 180' (DRC-2, concentration 20): 23%
% inhibition apPOL 180' (DRC-2, concentration 40): 48%
% inhibition apPOL 180' (DRC-2, concentration 80): 72%

COc1ccc(CNC(=O)Cn2nc3c(c2NC(=O)Cc2cccs2)CSC3)cc1 [Molecule 55, COc1ccc(cc1)CNC(=O)Cn1nc2c(c1NC(=O)Cc1cccs1)CSC2]
DNA Pol [1]: 42
DNA Pol (DNA Pol (primary screen value)): 42
% inhibition Apo pol 10' (DRC-1, concentration 2.5): 7.186%
% inhibition Apo pol 10' (DRC-1, concentration 5): 13.7887%
% inhibition Apo pol 10' (DRC-1, concentration 10): 43.1349%
% inhibition Apo pol 10' (DRC-1, concentration 20): 61.7989%
% inhibition Apo pol 10' (DRC-1, concentration 40): 74.6193%
% inhibition Apo pol 10' (DRC-1, concentration 80): 82.9138%
% inhibition Apol 90' (DRC-1, concentration 2.5): -3.211%
% inhibition Apol 90' (DRC-1, concentration 5): 0.071%
% inhibition Apol 90' (DRC-1, concentration 10): 21.9926%
% inhibition Apol 90' (DRC-1, concentration 20): 39.7839%
% inhibition Apol 90' (DRC-1, concentration 40): 59.3907%
% inhibition Apol 90' (DRC-1, concentration 80): 77.3387%
% inhibition apPOL 180' (DRC-1, concentration 2.5): -10.7492%
% inhibition apPOL 180' (DRC-1, concentration 5): -8.12%
% inhibition apPOL 180' (DRC-1, concentration 10): 5.391%
% inhibition apPOL 180' (DRC-1, concentration 20): 18.5765%
% inhibition apPOL 180' (DRC-1, concentration 40): 40.1483%
% inhibition apPOL 180' (DRC-1, concentration 80): 66.9877%
% inhibition Apo pol 5' (DRC-2, concentration 2.5): -0.186%
% inhibition Apo pol 5' (DRC-2, concentration 5): -3.35%
% inhibition Apo pol 5' (DRC-2, concentration 10): 16%
% inhibition Apo pol 5' (DRC-2, concentration 20): 23%
% inhibition Apo pol 5' (DRC-2, concentration 40): 32%
% inhibition Apo pol 5' (DRC-2, concentration 80): 26%
% inhibition Apol 40' (DRC-2, concentration 2.5): -0.881%
% inhibition Apol 40' (DRC-2, concentration 5): -4.6%
% inhibition Apol 40' (DRC-2, concentration 10): 17%
% inhibition Apol 40' (DRC-2, concentration 20): 23%
% inhibition Apol 40' (DRC-2, concentration 40): 47%
% inhibition Apol 40' (DRC-2, concentration 80): 53%
% inhibition ApPOL 90' (DRC-2, concentration 2.5): -1.87%
% inhibition ApPOL 90' (DRC-2, concentration 5): -7%
% inhibition ApPOL 90' (DRC-2, concentration 10): 13%
% inhibition ApPOL 90' (DRC-2, concentration 20): 19%
% inhibition ApPOL 90' (DRC-2, concentration 40): 45%
% inhibition ApPOL 90' (DRC-2, concentration 80): 63%
% inhibition apPOL 180' (DRC-2, concentration 2.5): -6.63%
% inhibition apPOL 180' (DRC-2, concentration 5): -14%
% inhibition apPOL 180' (DRC-2, concentration 10): 1.41%
% inhibition apPOL 180' (DRC-2, concentration 20): 5%
% inhibition apPOL 180' (DRC-2, concentration 40): 35%
% inhibition apPOL 180' (DRC-2, concentration 80): 65%
